According to US6084072A, “Purified lectin and methods of use” (The Regents of the University of Michigan, priority 1993, dated 2000):
“And” between values parts separate entries of the source, which are not always exact repeats. Identical values can stand only once.

Experiments:
FAP colonic tissue = experiment: Lectin histochemistry, familial adenomatous polyposis (FAP) colonic tissue; type: binding, human
Description: Full thickness specimens of colonic tissue were obtained from colectomy specimens for familial adenomatous polyposis at Johns Hopkins Hospital, fixed in formalin, and embedded in paraffin for tissue sectioning. The tissue specimens contained normal-appearing flat mucosa familial adenomatous polyposis, or FAP-normal, as well as a polypoid, adenomatious tissue familial adenomatous polyposis, or FAP-abnormal.
(§1) Four micron paraffin embedded tissue sections attached to glass slides were deparaffinized by serial incubations in xylene (twice), absolute ethanol (thrice), 95% ethanol, 70% ethanol, water and finally equilibrated in phosphate buffered saline (PBS), pH 7.0, containing 0.1% bovine serum albumin (BSA) commercially available from Sigma Corp of St. Louis, Mo. The slides were blotted dry adjacent to the tissue sections, and biotinylated lectin was added at a concentration of 10 μg/ml (for ACA) and 20 μg/ml (for PNA) in a quantity sufficient to completely cover the hydrated tissue (100-2001 μl). The lectin was rinsed off after a 30 minute incubation by eight 2-second dips into phosphate buffered saline. The slides were again blotted, and the tissue covered with Streptavidin-horseradish peroxidase (HRP) obtained from Zymed Laboratories, San Francisco, Calif. at a concentration of 10 μg/ml for 30 minutes. The slides were rinsed as mentioned above, and the pigmented reaction product developed by the addition of a freshly prepared chromogen reagent solution prepared within two hours of use as follows.
3,3'-diaminobenzidine was aliqotted at 5 mg/mL in 0.01 M (Tris) tris hydroxy methyl amino methane saline, pH 7.5 and frozen at -70° C. until use. For use, the aliquot was thawed, diluted 1:10 in 0.01 M (Tris) tris hydroxy methyl amino methane saline pH 7.5, and 3.3 μL of 30% H2 O2 were added to each 5 ml. This solution was allowed to stand for 10 min, and 100-200 μl was applied to the tissue sections that had been incubated earlier with biotinylated lectin and Streptavidin-HRP. After 10 min, the slides were rinsed with albumin-free phosphate buffered saline. […]
A second method for scoring tissues was used to survey normal colonic tissues, adenomatous polyps, and cancers. For these studies, individual epithelial "units" were counted as either positive or negative; i.e., each crypt of Lieberkuhn or neoplastic gland was considered an independent scorable unit, and the tissue score was expressed in terms of the percentage of units with any degree of definite labeling as from 1^+ to 4^+. […]
(§2) Therefore, each individual crypt of Lieberkuhn was given a score from 0-4^+, and the labeling was expressed as a "weighted average", or, the sum of scores from 100 crypts, which could range from 0 (all crypts not labeled) to 400 (all 100 crypts maximally labeled). […]

HNPCC tissues = experiment: Lectin histochemistry, HNPCC rectal biopsies; type: binding, human; parameters: key to Staining (global score 0-3+): 4^+: Maximum labeling of the brown reaction product; 0: No staining of the slide compared to control sections; 1^+: trace or weak staining definitely not seen on control slides; 2+3^+: stronger staining, but definitely less than maximal; conditions: listed as ACA; for Weighted Average (0-400): mean ± SEM
Description: Rectal biopsies were obtained from individuals who were first degree relatives of patients with hereditary nonpolyposis colorectal cancer (HNPCC) as identified by H. T. Lynch, M.D. These patients were the siblings or offspring of index patients who fit the criteria for Lynch Syndrome I or II. See Drzeniek, Z., and Usowska, E. (1979) Arch. Immunol Ther. Exp. 27, 253-262. However, since there is no definitive genetic or phenotypic marker for this familial syndrome, it is not possible to be certain that these patients represent a single homogenous genetic abnormality. The biopsies were fixed in formalin, and embedded in paraffin for tissue sectioning.
as §1, with “follows. […]” for “follows.”
as §2

hog lymphocytes = conditions: cited from earlier work
[1] = system: asialo-ovine submaxillary mucin; experiment: Metal analysis of amaranthin activity in the precipitation assay; type: binding
Protocol: For metal analysis two methods were used to determine if metals were necessary for amaranthin activity. 1) Amaranthin was dialyzed against 1 N acetic acid at 4° C. overnight, and then against 20 mM phosphate buffer at pH 7.2. The acid dialyzed amaranthin was then used in the standard precipitation assay with asialo-ovine submaxillary mucin and the indicated additions. 2) After dialysis into metal free buffer, amaranthin was incubated for 1 hour at room temperature in the presence of the indicated ethylene diamine tetraacetate (EDTA) concentrations. Asialo-ovine submaxillary mucin was then added, and the precipitation assay was carried out as usual. All glassware was acid-washed and buffers were passed over a Chelex 100 column, a trademarked, column commercially available from Bio-Rad to remove divalent metal ions.

[2] = system: mucin purified from the LS174T xenograft; experiment: Solid phase enzyme-linked lectin-binding assay
Protocol: A solid phase enzyme-linked lectin-binding assay has been developed for ACA to quantitate lectin binding to solubilized glycoconjugates. ACA is more sensitive in the measurement of purified cancer-associated mucin than peanut lectin, and can detect as little as 1 mg of mucin purified from the LS174T xenograft.

[3] = system: human red blood cells (A, B, and O); experiment: Hemagglutination; type: cell-based
Protocol: In the hemagglutination procedure, red blood cells were washed and resuspended to make a 2% suspension in phosphate buffered saline. The lectin solution was serially diluted in microliter plates followed by the addition of the 2% red blood cell suspension. Hemagglutination was observed after 1 hour at room temperature. One hemagglutination unit (HU) is defined as the minimum amount of amaranthin to completely agglutinate cells and is equivalent to a lectin concentration of 2 μg/ml.

## amaranthin
FAP colonic tissue; FAP, mean ± SEM, listed as ACA
  Weighted Average (0-400): 224±76
FAP colonic tissue; all 28 specimens, mean
  Percent of epithelial glands with bound lectin: 67±6%
FAP colonic tissue; flat tissue, mean ± SEM, listed as ACA
  Percent of Epithelial Units Labeled: 60±7% and 60%±7%
FAP colonic tissue; polypoid tissue, mean ± SEM, listed as ACA
  Percent of Epithelial Units Labeled: 83±7% and 83%±7%
HNPCC tissues; HNPCC outliers
  Weighted Average (0-400): 203±43
HNPCC tissues; HNPCC
  Weighted Average (0-400): 74±70
HNPCC tissues; biotinylated ACA 10 μg/mL or PNA 20 μg/mL
  Staining (global score 0-3+): 1^+
Hog lymphocytes
  mitogenicity, in words: non-mitogenic
[1]; 5 mM EDTA
  % Control reactivity: 100%
[1]; 25 mM EDTA
  % Control reactivity: 100%
[1]; Acid dialyzed amaranthin & AOSM
  % Control reactivity: 81%
[1]; Acid dialyzed amaranthin & AOSM, 0.1 mM CaCl2
  % Control reactivity: 80%
[1]; Acid dialyzed amaranthin & AOSM, 0.1 mM MgCl2
  % Control reactivity: 80%
[1]; Acid dialyzed amaranthin & AOSM, 0.1 mM MnCl2
  % Control reactivity: 79%
[1]; ethylene diamine tetra acetate 5-25 mM
  effect of EDTA on precipitating activity, in words: had no effect
[2]
  smallest amount of mucin detected: 1 mg
[3]
  agglutination of A, B, O red blood cells, in words: does and No difference was observed
[3]; 2% red blood cell suspension, 1 hour at room temperature
  minimum amount to completely agglutinate cells (one HU): 2 µg/mL
